Experimental data reported in patent US6914045B2, “Glycopeptide antibiotics” (Wyeth Holdings Corporation, priority 2001, dated 2005).
≈ marks a conversion by molar mass, not a printed value.

What was measured:
Test in all cases: in vitro antibacterial evaluation, MIC by broth dilution
Type in all cases: cell-based
Enterococcus sp. = conditions: broth dilution, 18 hours at 35° C.; for MIC Enterococcus faecalis (ATCC 29212): strain ATCC 29212; for MIC Enterococcus faecium (GC 2243): strain GC 2243; for MIC Enterococcus faecalis (GC 4554): strain GC 4554; for MIC Enterococcus faecium (GC 4556): strain GC 4556; for MIC Enterococcus faecium (GC 4557): strain GC 4557; for MIC Enterococcus avium (GC 4558): strain GC 4558; for MIC Enterococcus faecalis (GC 6189): strain GC 6189
Method in brief: (§1)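 Broth dilution per NCCLS M7-A2 in Mueller-Hinton II medium, inoculum 5×10^5 CFU/mL, antibiotic range 64-0.06 μg/mL. MIC taken as lowest concentration inhibiting growth; Gram-positive panel includes recent clinical isolates resistant to methicillin, penicillin and/or vancomycin.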

Escherichia coli = tested on: Escherichia coli
Method in brief: as §1

Staphylococcus sp. = conditions: broth dilution, 18 hours at 35° C.
Method in brief: as §1

Streptococcus sp. = conditions: broth dilution, 18 hours at 35° C.
Method in brief: as §1

## CC(c1ccccc1)C1NC(=O)CNC(=O)C(CO)NC(=O)C(C(O)C2CNC(=N)N2C2OC(CO)C(O)C(O)C2O)NC(=O)C(C(O)C2CNC(=NC(=O)C(C)(C)C)N2)NC(=O)C(Cc2ccc(OC3OC(CO)C(OC4OC(CO)C(O)C(O)C4O)C(O)C3O)cc2)NC1=O (stereo not shown) [Example 155]
Enterococcus sp.; Enterococcus faecalis (GC 2242)
  MIC Enterococcus faecalis (GC 2242): 0.5 to 1 µg/mL
Enterococcus sp.; Enterococcus faecalis (GC 2691)
  MIC Enterococcus faecalis (GC 2691): 0.5 µg/mL (≈ 0.362 µM)
Enterococcus sp.; Enterococcus faecalis (GC 3059)
  MIC Enterococcus faecalis (GC 3059): 0.5 µg/mL (≈ 0.362 µM)
Enterococcus sp.; inoculum 5×10^5 CFU/mL
  MIC Enterococcus faecalis (ATCC 29212): 0.5 to 1 µg/mL
  MIC Enterococcus faecium (GC 2243): <0.5 to 1 µg/mL
  MIC Enterococcus faecalis (GC 4554): 0.5 to 1 µg/mL
  MIC Enterococcus faecium (GC 4556): 1 to 2 µg/mL
  MIC Enterococcus faecium (GC 4557): 1 to 2 µg/mL
  MIC Enterococcus avium (GC 4558): 0.5 to 1 µg/mL
  MIC Enterococcus faecalis (GC 6189): 0.5 µg/mL (≈ 0.362 µM)
Enterococcus sp.
  MIC Enterococcus faecalis (ATCC 29212): 0.5 to 1 µg/mL
  MIC Enterococcus faecium (GC 2243): <0.5 to 1 µg/mL
  MIC Enterococcus faecalis (GC 4554): 0.5 to 1 µg/mL
  MIC Enterococcus faecium (GC 4556): 1 to 2 µg/mL
  MIC Enterococcus faecium (GC 4557): 1 to 2 µg/mL
  MIC Enterococcus avium (GC 4558): 0.5 to 1 µg/mL
  MIC Enterococcus faecalis (GC 6189): 0.5 µg/mL (≈ 0.362 µM)
Enterococcus sp.; strain GC 2242
  MIC Enterococcus faecalis (GC 2242): 0.5 to 1 µg/mL
Enterococcus sp.; strain GC 2691
  MIC Enterococcus faecalis (GC 2691): 0.5 µg/mL (≈ 0.362 µM)
Enterococcus sp.; strain GC 3059
  MIC Enterococcus faecalis (GC 3059): 0.5 µg/mL (≈ 0.362 µM)
Escherichia coli; strain ATCC 25922, 18 hours at 35° C.
  MIC Escherichia coli (ATCC 25922): >64 µg/mL
Escherichia coli; strain GC 4559, 18 hours at 35° C.
  MIC Escherichia coli (GC 4559): >64 µg/mL
Escherichia coli; strain GC 4560, 18 hours at 35° C.
  MIC Escherichia coli (GC 4560): 0.5 to 2 µg/mL
Staphylococcus sp.; strain GC 3051
  MIC Staphylococcus aureus (GC 3051): 0.5 µg/mL (≈ 0.362 µM)
Staphylococcus sp.; strain GC 3053
  MIC Staphylococcus aureus (GC 3053): 0.5 µg/mL (≈ 0.362 µM)
Staphylococcus sp.; strain GC 4545
  MIC Staphylococcus aureus (GC 4545): 0.5 to 1 µg/mL
Staphylococcus sp.; strain GC 4546
  MIC Staphylococcus haemolyticus (GC 4546): <0.5 to 1 µg/mL
Staphylococcus sp.; strain GC 4547
  MIC Coagulase Negative Staphylococcus (GC 4547): <0.5 to 2 µg/mL
Staphylococcus sp.; strain GC 4548
  MIC Coagulase Negative Staphylococcus (GC 4548): <0.5 to 1 µg/mL
Staphylococcus sp.; strain GC 4549
  MIC Coagulase Negative Staphylococcus (GC 4549): <0.5 to 1 µg/mL
Staphylococcus sp.; strain GC 4551
  MIC Coagulase Negative Staphylococcus (GC 4551): <0.5 to 1 µg/mL
Staphylococcus sp.; strain GC 6257
  MIC Coagulase Negative Staphylococcus (GC 6257): 1 µg/mL (≈ 0.725 µM)
Staphylococcus sp.; strain ID-3941
  MIC Coagulase Negative Staphylococcus (ID-3941): <0.5 µg/mL
Streptococcus sp.; Streptococcus agalactiae (GC 4564)
  MIC Streptococcus agalactiae (GC 4564): <0.12 µg/mL
Streptococcus sp.; Streptococcus pneumoniae (ATCC 6301)
  MIC Streptococcus pneumoniae (ATCC 6301): 0.12 µg/mL (≈ 0.087 µM)
Streptococcus sp.; Streptococcus pneumoniae (GC 1894)
  MIC Streptococcus pneumoniae (GC 1894): 0.12 µg/mL (≈ 0.087 µM)
Streptococcus sp.; Streptococcus pyogenes (GC 4563)
  MIC Streptococcus pyogenes (GC 4563): >0.12 µg/mL
Streptococcus sp.; Streptococcus pyogenes (ID-3187)
  MIC Streptococcus pyogenes (ID-3187): <0.5 µg/mL
Streptococcus sp.; strain ATCC 6301
  MIC Streptococcus pneumoniae (ATCC 6301): 0.12 µg/mL (≈ 0.087 µM)
Streptococcus sp.; strain GC 1894
  MIC Streptococcus pneumoniae (GC 1894): 0.12 µg/mL (≈ 0.087 µM)
Streptococcus sp.; strain GC 4563
  MIC Streptococcus pyogenes (GC 4563): >0.12 µg/mL
Streptococcus sp.; strain GC 4564
  MIC Streptococcus agalactiae (GC 4564): <0.12 µg/mL
Streptococcus sp.; strain ID-3187
  MIC Streptococcus pyogenes (ID-3187): <0.5 µg/mL
